Earlier results, collected in patent publication US11690524B2, “Assessment of iron deposition post myocardial infarction as a marker of myocardial hemorrhage” (Cedars-Sinai Medical Center, priority 2011, dated 2023).

Columns and labels:
[1] = qualitative statement
post MI patients = details: 6 months of therapy, TACT trial

Cc1c(O)c(=O)ccn1C [Deferiprone]
half-life in plasma / plasma life [1]: longer

CC(=O)N(O)CCCCCNC(=O)CCC(=O)N(O)CCCCCNC(=O)CCC(=O)N(O)CCCCCN [deferoxamine]
half-life in plasma / plasma life [1]: short

O=C(O)CN(CCN(CC(=O)O)CC(=O)O)CC(=O)O [EDTA]
effect on MACE (major adverse cardiovascular events) (post MI patients): did not decrease MACE
